Source: patent US12458630B2, “Combination therapy for cancer” (The Regents of the University of California, priority 2020, dated 2025)
Entries after “also recorded” stand apart in the source; their conditions may differ.

Columns and labels:
MIA PaCa-2 cells = experiment: TMR-DEX macropinosome uptake assay; format: cell-based, human
Experimental: Cell imaging. Immunostaining was performed as described^44. Cells were cultured on coverslips and fixed in 4% PFA for 10 min at room temperature. After washing twice in PBS, cells were incubated in PBS containing 10% FBS to block nonspecific sites of antibody adsorption. The cells were then incubated with the appropriate primary antibodies (diluted 1:100) and secondary antibodies (diluted 1:500) in PBS containing 10% FBS with or without 0.1% saponin. For cell macropinosome visualization, 24 hrs after seeding, the cells were serum starved for 18 hrs. Macropinosomes were marked using a high-molecular-mass (70 KD) TMR-Dextran (Invitrogen)-uptake assay, wherein TMR-DEX was added to serum-free medium at a final concentration of 1 mg/ml for 30 min at 37° C. At the end of the incubation period, the cells were rinsed five times in cold PBS and immediately fixed in 4% PFA. For tissue macropinosome visualization^45, fresh pancreata were cut into pieces with an approximate 5-mm cuboidal shape. A tissue section was placed in a 24-well plate and injected 150 μL of 10 mg/ml TMR-DEX solution directly into the tissue piece. Another 250 μL of diluted TMR-DEX solution were added to the well to immerse the tissue section. The plate was incubated in the dark for 15 min at room temperature. Then the tissue section was rinsed twice in PBS before embedding in O.C.T. compound in a prelabeled cryomold. Specimens were frozen on dry ice and stored at −80° C. for further processing. Immunostaining was performed as described above. Images were captured using a TCS SPE Leica confocal microscope (Leica, Germany).
In some embodiments, Immunostaining was performed as described (Su et al., 2017). Cells were cultured on coverslips and fixed in 4% PFA for 10 min at room temperature or methanol for 10 min at −20° C. After washing twice in PBS, cells were incubated in PBS containing 10% FBS to block nonspecific sites of antibody adsorption. The cells were then incubated with the appropriate primary antibodies (diluted 1:100) and secondary antibodies (diluted 1:500) in PBS containing 10% FBS with or without 0.1% saponin. For cell macropinosome visualization, 24 hrs after seeding, the cells were serum starved for 18 hrs. Macropinosomes were marked using a high-molecular-mass (70 KDa) TMR-DEX (Invitrogen)-uptake assay, wherein TMR-DEX was added to serum-free medium at a final concentration of 1 mg/ml for 30 min at 37° C. At the end of the incubation period, the cells were rinsed five times in cold PBS and immediately fixed in 4% PFA. For tissue macropinosome visualization (Lee et al., 2019), fresh pancreata were cut into pieces with an approximate 5-mm cuboidal shape. Tissue fragments were placed in a 24-well plate and injected with 150 μL of 10 mg/ml TMR-DEX solution. Another 250 μL of diluted TMR-DEX solution were added to the well to immerse the tissue fragment. The plate was incubated in the dark for 15 min at room temperature. Then the tissue fragments were rinsed twice in PBS before embedding in O.C.T. compound in a prelabeled cryomold. Specimens were frozen on dry ice and stored at −80° C. for further processing. Immunostaining was performed as described above. Images were captured using a TCS SPE Leica confocal microscope (Leica, Germany).
Quantification and statistics. To quantify the number of LC3 puncta, a total of 30 cells were recorded and analyzed using the LAS X measurement program on the TCS SPE Leica. Macropinosomes were quantified by using the ‘Analyze Particles’ feature in ImageJ (National Institutes of Health). Macropinocytic uptake index was computed by determining the total macropinosome area in relation to the total cell area for each field and then by determining the average across all the fields (at least 6 fields). These measurements were done on randomly-selected fields of view. Two-tailed unpaired Student's t test was performed for statistical analysis using GraphPad Prism software. […]

human PDAC 1444 tumors = experiment: s.c. tumors in nude mice; format: in vivo, mouse; details: EIPA 7.5 mg/kg, MRT68921 10 mg/kg, 15 days
Experimental: (§1) In some embodiments, to evaluate the effects of MP on tumor growth or survival in the autochthonous model, Kras^G12D;Ikkα^ΔPEC mice, at 4 weeks of age, were treated with vehicle or 10 mg/kg EIPA (Sigma) by i.p. injection every other day for 1 month. After that, surgically removed pancreata were weighed and used for further analysis and other mice were continued to maintain for survival. To evaluate the effects of MP on heterotopic xenografts, female homozygous BALB/c Nu/Nu nude mice were injected subcutaneously (s.c.) in both flanks at 7 weeks of age with 10^6 parental and IKKα^Δ MIA PaCa-2 cells or 1334 and 1444 cells mixed at a 1:1 dilution with BD Matrigel (BD Biosciences) in a total volume of 100 μl. Mice were treated with vehicle (DMSO in PBS), EIPA (7.5 mg/kg), MRT68921 (10 mg/kg) or MRT68921 and EIPA for 15 days when tumors attained an average volume of 50-100 mm^3. Volumes (1/2×(width^2×length)) of s.c. tumors were calculated on the basis of measurements using digital calipers after 15 days of treatment. To evaluate the combination effects of autophagy and MP inhibition on tumor growth, C57BL/6 mice were injected s.c. at 7 weeks of age with 10^6 parental, Ikkα KD, Nhe1 KD or Ikkα+Nhe1 DKD KC6141 cells in a total volume of 100 μl. Mice were treated with or without vehicle, EIPA (7.5 mg/kg), MRT68921 (10 mg/kg), or EIPA and MRT68921 for 21 days when tumors attained an average volume of 50-100 mm^3. Tumor volumes were calculated as above.

human PDAC 1334 tumors = experiment: s.c. tumors in nude mice; format: in vivo, mouse; details: EIPA 7.5 mg/kg, MRT68921 10 mg/kg, 15 days
Experimental: as §1

SMILES | macropinosome formation (TMR-DEX labeling) (MIA PaCa-2 cells; parental and IKKα-KO (IKKα^Δ) MIA PaCa-2 cells, 75 μM EIPA) | tumor growth (human PDAC 1444 tumors) | tumor growth (human PDAC 1334 tumors) | relative macropinocytic uptake (macropinosomes) (MIA PaCa-2 cells; MIA PaCa-2 cells +/- MRT68921)
CCN(c1nc(N)c(C(=O)N=C(N)N)nc1Cl)C(C)C [EIPA, 5-(N-ethyl-N-isopropyl) amiloride] | blocks macropinosome formation; also recorded: inhibited; also recorded: suppressed | small effect | sensitive to EIPA | –
CN1CCc2cc(Nc3ncc(C4CC4)c(NCCCNC(=O)C4CCC4)n3)ccc2C1 [MRT68921] | – | small effect | insensitive to MRT68921 | more macropinosomes; also recorded: increased macropinosomes; also recorded: enhanced
